ChEMBL document CHEMBL3351950, “Synthesis of genistein coupled with sugar derivatives and their inhibitory effect on nitric oxide production in macrophages” (Eur J Med Chem, 2014)
Activity calls are given as the source filed them. The calls are words filed in the database; no cut-off is given here.

Columns and labels:
[1] = system: J774.A1; assay: Inhibition of nitric oxide production in LPS/IFNgamma-stimulated mouse J774A1 cells assessed as nitrites level at 26 uM by Griess method (reference value: 16.5 +/- 1.4 uM); type: functional
[2] = Cytotoxicity against LPS/IFNgamma-stimulated mouse RAW264.7 cells assessed as cell viability at 6.5 uM after 48 hrs by MTT method (reference value: 100 +/- 1.8%); type: cell-based; conditions: LPS/IFNgamma-stimulated RAW264.7 cells, read-out: Activity
[3] = system: RAW264.7; assay: Inhibition of nitric oxide production in LPS/IFNgamma-stimulated mouse RAW264.7 cells assessed as nitrites level at 26 uM by Griess method (reference value: 6.4 +/- 0.5 uM); type: functional
[4] = system: J774.A1; assay: Inhibition of nitric oxide production in LPS/IFNgamma-stimulated mouse J774A1 cells assessed as nitrites level at 13 uM by Griess method (reference value: 16.5 +/- 1.4 uM); type: functional
[5] = Cytotoxicity against LPS/IFNgamma-stimulated mouse RAW264.7 cells assessed as cell viability at 13 uM after 48 hrs by MTT method (reference value: 100 +/- 1.8%); type: cell-based; conditions: LPS/IFNgamma-stimulated RAW264.7 cells, read-out: Activity
[6] = system: J774.A1; assay: Inhibition of nitric oxide production in LPS/IFNgamma-stimulated mouse J774A1 cells assessed as nitrites level at 6.5 uM by Griess method (reference value: 16.5 +/- 1.4 uM); type: functional
[7] = Cytotoxicity against LPS/IFNgamma-stimulated mouse RAW264.7 cells assessed as cell viability at 26 uM after 48 hrs by MTT method (reference value: 100 +/- 1.8%); type: cell-based; conditions: LPS/IFNgamma-stimulated RAW264.7 cells, read-out: Activity
[8] = Cytotoxicity against LPS/IFNgamma-stimulated mouse J774A1 cells assessed as cell viability at 6.5 uM after 48 hrs by MTT method (reference value: 100 +/- 1.1%); type: cell-based, J774.A1; conditions: read-out: Activity
[9] = system: RAW264.7; assay: Inhibition of nitric oxide production in LPS/IFNgamma-stimulated mouse RAW264.7 cells assessed as nitrites level at 13 uM by Griess method (reference value: 6.4 +/- 0.5 uM); type: functional
[10] = Cytotoxicity against LPS/IFNgamma-stimulated mouse J774A1 cells assessed as cell viability at 13 uM after 48 hrs by MTT method (reference value: 100 +/- 1.1%); type: cell-based, J774.A1; conditions: read-out: Activity
[11] = system: J774.A1; assay: Inhibition of TNFalpha production in LPS/IFNgamma-stimulated mouse J774A1 cells assessed as TNFalpha level at 6.5 uM by ELISA method (reference value: 89.2 +/- 17.1 pg/mL); type: functional
[12] = Cytotoxicity against LPS/IFNgamma-stimulated mouse J774A1 cells assessed as cell viability at 26 uM after 48 hrs by MTT method (reference value: 100 +/- 1.1%); type: cell-based, J774.A1; conditions: read-out: Activity
[13] = system: RAW264.7; assay: Inhibition of nitric oxide production in LPS/IFNgamma-stimulated mouse RAW264.7 cells assessed as nitrites level at 6.5 uM by Griess method (reference value: 6.4 +/- 0.5 uM); type: functional
[14] = system: RAW264.7; assay: Inhibition of TNFalpha production in LPS/IFNgamma-stimulated mouse RAW264.7 cells assessed as TNFalpha level at 6.5 uM by ELISA method; type: functional, cell-based

| Structure (SMILES) | Activity [1] [µM] | viability at 48 h, 6.5 µM [2] [%] | Activity [3] [µM] | Activity [4] [µM] | viability at 48 h, 13 µM [5] [%] | Activity [6] [µM] | viability at 48 h, 26 µM [7] [%] | viability at 48 h, 6.5 µM [8] [%] | Activity [9] [µM] | viability at 48 h, 13 µM [10] [%] | inhibition [11] | viability at 48 h, 26 µM [12] [%] | Activity [13] [µM] | inhibition [14] | Activity [11] [pg/mL] |
| --- | --- | --- | --- | --- | --- | --- | --- | --- | --- | --- | --- | --- | --- | --- | --- |
| CO[C@H]1O[C@H](COc2ccc(-c3coc4cc(OC[C@H]5O[C@H](OC)[C@H](O)[C@@H](O)[C@@H]5O)cc(O)c4c3=O)cc2)[C@@H](O)[C@H](O)[C@H]1O | 8.5 | 93.6 | 0 | 9.1 | 99.2 | 8.7 | 92.2 | 99.9 | 0 | 96.6 | inactive | 94.8 | 0 | inactive |  |
| O=c1c(-c2ccc(O)cc2)coc2cc(O)cc(O)c12 [GENISTEIN] | 14.5 | 128 | 6.1 | 13.8 | 103 | 13.4 | 108 | 112 | 6.3 | 104 | inactive | 110 | 6.3 |  |  |
| CO[C@H]1O[C@H](COc2cc(O)c3c(=O)c(-c4ccc(O)cc4)coc3c2)[C@@H](O)[C@H](O)[C@H]1O | 14.3 | 91.3 | 1.7 | 11.3 | 88.1 | 7.2 | 78.3 | 68.1 | 1 | 64.3 | inactive | 44.9 | 1.4 | inactive |  |
| CC1(C)O[C@H]2[C@@H](O1)[C@@H](COc1ccc(-c3coc4cc(OC[C@H]5O[C@@H]6OC(C)(C)O[C@@H]6[C@H]6OC(C)(C)O[C@H]65)cc(O)c4c3=O)cc1)O[C@@H]1OC(C)(C)O[C@@H]12 | 12.3 | 98.9 | 2.4 | 11.8 | 89.4 | 9.8 | 94.4 | 89.7 | 2.7 | 87.3 | inactive | 83.6 | 2.6 | inactive |  |
| CO[C@H]1O[C@H](COc2ccc(-c3coc4cc(OC[C@H]5O[C@H](OC)[C@H](OC(C)=O)[C@@H](OC(C)=O)[C@@H]5OC(C)=O)cc(O)c4c3=O)cc2)[C@@H](OC(C)=O)[C@H](OC(C)=O)[C@H]1OC(C)=O | 11.7 | 103 | 4.1 | 12.1 | 98.4 | 11.5 | 101 | 82.1 | 2.5 | 86.7 |  | 87.9 | 1.9 | inactive | 51.9 |
| CC1(C)O[C@H]2[C@@H](O1)[C@@H](COc1cc(O)c3c(=O)c(-c4ccc(O)cc4)coc3c1)O[C@@H]1OC(C)(C)O[C@@H]12 | 0.7 | 87.6 | 3.1 | 12.8 | 88.1 | 17.7 | 71.3 | 102 | 2.5 | 85.5 | inactive | 30.3 | 2.4 | inactive |  |
| O=c1c(-c2ccc(O)cc2)coc2cc(OC[C@H]3O[C@H](O)[C@H](O)[C@@H](O)[C@H]3O)cc(O)c12 | 9.1 | 95.9 | 0 | 10.9 | 98.2 | 9.7 | 95.8 | 93.6 | 0 | 95.2 |  | 88.9 | 1.4 | inactive | 38.3 |
| CO[C@H]1O[C@H](COc2cc(O)c3c(=O)c(-c4ccc(O)cc4)coc3c2)[C@@H](OC(C)=O)[C@H](OC(C)=O)[C@H]1OC(C)=O | 10.4 | 103 | 2.4 | 13.1 | 104 | 12.7 | 103 | 94.7 | 4.2 | 92.7 |  | 87.4 | 2.1 | inactive | 51.7 |
